# Test: Intrinsic dissolution rate from controlled suspensions (SIDR), μDiss Profiler
# Type: physicochemical
# Settings: suspension (S), FaSSIF-V1 pH 6.5, 37 °C, 100 rpm, mean ± SD
# Method: Controlled suspensions of the APIs were prepared by tip ultrasonication in suspension media. For compatibility reasons, the suspension medium composition was 2% PVP K30 and 0.2% SDS in MilliQ water for acidic and neutral compounds or 1% HPMC and 0.2% SDS in MilliQ water for basic compounds. Suspension media were stirred for at least an hour until a clear solution was obtained. All suspensions were prepared at a concentration of 4 mg API/mL suspension medium by weighing 16 mg of the compound into a glass vial and adding 4 mL of the corresponding suspension medium. The suspension was then briefly vortexed prior to 5 min of tip ultrasonication using a Vibra-Cell sonicator mounted with a 13 mm (Ø) probe tip (Sonics, Newtown, CT, USA). The following settings were used: 20% amplitude, pulse 10 s on and 5 s off. The vial containing the suspension was placed in a beaker with ice during ultrasonication to avoid heating. Felodipine and griseofulvin were treated slightly differently to avoid forming a large fraction of submicron-sized particles. The felodipine suspension was only ultrasonicated for 1 min, and the griseofulvin suspension was used immediately after vortexing and without ultrasonication. All prepared suspensions were kept in an oven at 37 °C prior to use in the dissolution experiments. Dissolution experiments were performed within three hours of sample preparation.
# The freshly prepared suspension was diluted (100 µL in 1 mL MilliQ water) and immediately used for determination of hydrodynamic particle size by dynamic light scattering (DLS; Litesizer 500, Anton Paar GmbH, Graz, Austria) at 25 °C. Peak values from the intensity-based particle size distribution were used for calculating total particle surface area in the suspension following the approach of Andersson et al.. In case of bimodal particle size distributions, an intensity peak weighted average particle size was calculated. The following assumptions were made for the surface area calculations: (i) spherical particles, (ii) constant particle size, and (iii) constant number of particles during the initial phase of the dissolution experiment (i.e., under sink conditions or <0.3 × Sapp). Using these assumptions, the volume of each particle (Vparticle) is:(1) Vparticle=4πr^3/3, where r is the mean radius of the suspended particles. The particle surface area (SAparticle) is:(2) SAparticle=4πr^2, and the volume of compound (Vmaterial) added to the dissolution medium is:(3) Vmaterial=m/ρ, where m is the total mass of compound added and ρ is the density of the compound. The total number of particles (n) in the suspension can thus be calculated from:(4) nparticles=Vmaterial/Vparticle
# Finally, the total surface area (A, cm^2) of all particles present in the suspension added to the dissolution medium is calculated through:(5) A=nparticlesSAparticle
# Dissolution experiments were carried out in a small-scale dissolution apparatus using in situ fiber optic probes to measure the amount of drug dissolved over time by UV absorbance (μDiss Profiler, Pion Inc., Billerica, MA, USA). Drug dissolution was carried out from suspensions (S) or discs (D) depending on the solubility of the compound in the biorelevant media studied (Table 3). […].
# Standard curves were established by adding aliquots of DMSO stock solutions of the compounds to 3 mL of biorelevant medium, respectively. Dissolution media were prepared following the protocol provided by Biorelevant.com Ltd. and used within 48 h after their preparation. The media were incubated at 37 °C for at least one hour prior to use in the dissolution experiments. The hydrodynamic diameter of the micelles/vesicles formed in the biorelevant media were measured by DLS (Table 2). […] The biorelevant dissolution medium was maintained at 37 °C in the μDiss Profiler and stirred at 800 rpm during addition of the DMSO stock aliquots. […]
row,Structure (SMILES),IDRFaSSIF-V1 [μg/min/cm^2]
1,C#C[C@]1(O)CC[C@H]2[C@@H]3CCC4=Cc5oncc5C[C@]4(C)[C@H]3CC[C@@]21C [Danazol],0.14 ± 0.02
2,OCCN(CCO)c1nc(N2CCCCC2)c2nc(N(CCO)CCO)nc(N3CCCCC3)c2n1 [Dipyridamole],0.5 ± 0.05
3,CCOC(=O)C1=C(C)NC(C)=C(C(=O)OC)C1c1cccc(Cl)c1Cl (stereo not drawn) [Felodipine],0.8 ± 0.4
4,CC(C)OC(=O)C(C)(C)Oc1ccc(C(=O)c2ccc(Cl)cc2)cc1 [Fenofibrate],0.04 ± 0.002
5,COC1=CC(=O)C[C@@H](C)[C@]12Oc1c(Cl)c(OC)cc(OC)c1C2=O [Griseofulvin],3.7 ± 0.6
6,CC(=O)[C@H]1CC[C@H]2[C@@H]3CCC4=CC(=O)CC[C@]4(C)[C@H]3CC[C@]12C [Progesterone],16.8 ± 0.5
7,Cc1c(Cl)cccc1Nc1ccccc1C(=O)O [Tolfenamic acid],4.1 ± 0.8

# Same assay, conditions: suspension (S), FaSSIF-V2 pH 6.5, 37 °C, 100 rpm, mean ± SD
row,Structure (SMILES),IDRFaSSIF-V2 [μg/min/cm^2]
1,OCCN(CCO)c1nc(N2CCCCC2)c2nc(N(CCO)CCO)nc(N3CCCCC3)c2n1 [Dipyridamole],0.5 ± 0.03
2,CCOC(=O)C1=C(C)NC(C)=C(C(=O)OC)C1c1cccc(Cl)c1Cl (stereo not drawn) [Felodipine],0.6 ± 0.2
3,CC(C)OC(=O)C(C)(C)Oc1ccc(C(=O)c2ccc(Cl)cc2)cc1 [Fenofibrate],0.05 ± 0.001
4,Cc1c(Cl)cccc1Nc1ccccc1C(=O)O [Tolfenamic acid],12.9 ± 0.9

# Same assay, conditions: suspension (S), FeSSIF-V2 pH 5.8, 37 °C, 100 rpm, mean ± SD
row,Structure (SMILES),IDRFeSSIF-V2 [μg/min/cm^2]
1,OCCN(CCO)c1nc(N2CCCCC2)c2nc(N(CCO)CCO)nc(N3CCCCC3)c2n1 [Dipyridamole],1.7 ± 0.3
2,CCOC(=O)C1=C(C)NC(C)=C(C(=O)OC)C1c1cccc(Cl)c1Cl (stereo not drawn) [Felodipine],1.5 ± 0.2
3,CC(C)OC(=O)C(C)(C)Oc1ccc(C(=O)c2ccc(Cl)cc2)cc1 [Fenofibrate],2.7 ± 0.3
4,Cc1c(Cl)cccc1Nc1ccccc1C(=O)O [Tolfenamic acid],4.8 ± 0.6

# Same assay, conditions: suspension assays
row,Structure (SMILES),IDR in fed-state medium (FeSSIF-V1) compared to fasted-state (FaSSIF-V1)
1,C#C[C@]1(O)CC[C@H]2[C@@H]3CCC4=Cc5oncc5C[C@]4(C)[C@H]3CC[C@@]21C [Danazol],28 fold
2,COC1=CC(=O)C[C@@H](C)[C@]12Oc1c(Cl)c(OC)cc(OC)c1C2=O [Griseofulvin],lower

# Test: Intrinsic dissolution rate from miniaturized discs (DIDR), μDiss Profiler
# Type: physicochemical
# Settings: disc (D), FaSSIF-V1 pH 6.5, 37 °C, 100 rpm, mean ± SD
# Method: Dissolution experiments were carried out in a small-scale dissolution apparatus using in situ fiber optic probes to measure the amount of drug dissolved over time by UV absorbance (μDiss Profiler, Pion Inc., Billerica, MA, USA). Drug dissolution was carried out from suspensions (S) or discs (D) depending on the solubility of the compound in the biorelevant media studied (Table 3). […] Standard curves were established by adding aliquots of DMSO stock solutions of the compounds to 3 mL of biorelevant medium, respectively. Dissolution media were prepared following the protocol provided by Biorelevant.com Ltd. and used within 48 h after their preparation. The media were incubated at 37 °C for at least one hour prior to use in the dissolution experiments. The hydrodynamic diameter of the micelles/vesicles formed in the biorelevant media were measured by DLS (Table 2). […] Stirring was turned off while measuring the UV absorbance for each aliquot and the standard curve was established based on six aliquots. […] Intrinsic dissolution rates will henceforth be denoted 'IDR' for both SIDR and DIDR values determined in this study (see Table 3 for details).
row,Structure (SMILES),IDRFaSSIF-V1 [μg/min/cm^2]
1,COc1ccc2c(c1)c(CC(=O)O)c(C)n2C(=O)c1ccc(Cl)cc1 [Indomethacin],31 ± 1.3
2,COc1ccc2cc([C@H](C)C(=O)O)ccc2c1 [Naproxen],144 ± 12

# Same assay, conditions: disc (D), FaSSIF-V2 pH 6.5, 37 °C, 100 rpm, mean ± SD
row,Structure (SMILES),IDRFaSSIF-V2 [μg/min/cm^2]
1,COc1ccc2cc([C@H](C)C(=O)O)ccc2c1 [Naproxen],179 ± 11

# Test: not given
# Settings: apparent solubility, FaSSIF-V1 pH 6.5; cited from earlier work
row,Structure (SMILES),SFaSSIF-V1
1,OCCN(CCO)c1nc(N2CCCCC2)c2nc(N(CCO)CCO)nc(N3CCCCC3)c2n1 [Dipyridamole],11.1 ± 3.0 [48] μg/mL
2,CCOC(=O)C1=C(C)NC(C)=C(C(=O)OC)C1c1cccc(Cl)c1Cl (stereo not drawn) [Felodipine],31.8 ± 1.7 [7] μg/mL
3,COC1=CC(=O)C[C@@H](C)[C@]12Oc1c(Cl)c(OC)cc(OC)c1C2=O [Griseofulvin],23.4 ± 1.8 [41] μg/mL
4,COc1ccc2c(c1)c(CC(=O)O)c(C)n2C(=O)c1ccc(Cl)cc1 [Indomethacin],421.7 ± 17.6 [7] μg/mL
5,CC(=O)[C@H]1CC[C@H]2[C@@H]3CCC4=CC(=O)CC[C@]4(C)[C@H]3CC[C@]12C [Progesterone],25.5 ± 1.1 [50] μg/mL
6,Cc1c(Cl)cccc1Nc1ccccc1C(=O)O [Tolfenamic acid],63.0 ± 2.7 [15] μg/mL

# Same assay, conditions: apparent solubility, FaSSIF-V1 pH 6.5; listed as dipyridamole; cited from earlier work
row,Structure (SMILES),SFaSSIF-V1 [µg/mL]
1,OCCN(CCO)c1nc(N2CCCCC2)c2nc(N(CCO)CCO)nc(N3CCCCC3)c2n1 [Dipyridamole],11 to 13

# Same assay, conditions: apparent solubility, FeSSIF-V1 pH 5; cited from earlier work
row,Structure (SMILES),SFeSSIF-V1
1,OCCN(CCO)c1nc(N2CCCCC2)c2nc(N(CCO)CCO)nc(N3CCCCC3)c2n1 [Dipyridamole],148.9 ± 19.7 [48] μg/mL
2,CCOC(=O)C1=C(C)NC(C)=C(C(=O)OC)C1c1cccc(Cl)c1Cl (stereo not drawn) [Felodipine],44.9 ± 9.2 [48] μg/mL
3,COC1=CC(=O)C[C@@H](C)[C@]12Oc1c(Cl)c(OC)cc(OC)c1C2=O [Griseofulvin],29.2 ± 3.4 [41] μg/mL
4,COc1ccc2c(c1)c(CC(=O)O)c(C)n2C(=O)c1ccc(Cl)cc1 [Indomethacin],109.0 ± 7.0 [15] μg/mL
5,CC(=O)[C@H]1CC[C@H]2[C@@H]3CCC4=CC(=O)CC[C@]4(C)[C@H]3CC[C@]12C [Progesterone],78.6 ± 16.2 [41] μg/mL
6,Cc1c(Cl)cccc1Nc1ccccc1C(=O)O [Tolfenamic acid],41.0 ± 0.5 [15] μg/mL

# Reference: paper PMC7356998, “Intrinsic Dissolution Rate Profiling of Poorly Water-Soluble Compounds in Biorelevant Dissolution Media” (Pharmaceutics, 2020)
